Converted amounts (≈) assume the structure as drawn. Positions of bridges follow the written chain, without caps; N, C: chain ends. Non-standard residues stand in square brackets, D forms with d. Residues, ends and D or L forms follow the SMILES beside them. S5 = C=CCCC[C@](C)(N)C(=O)O
Assays:
[1] = system: K. pneumoniae; conditions: CLSI broth microdilution, MH-II broth, 24 h 37 °C, AlamarBlue; ATCC 13883; 3 independent measurements
[2] = system: P. aeruginosa; conditions: CLSI broth microdilution, MH-II broth, 24 h 37 °C, AlamarBlue; ATCC 27853; 3 independent measurements
[3] = system: S. aureus; conditions: CLSI broth microdilution, MH-II broth, 10^6 CFU/mL, 24 h 37 °C, AlamarBlue; ATCC 25923; 3 independent measurements
[4] = system: S. epidermidis; conditions: CLSI broth microdilution, MH-II broth, 24 h 37 °C, AlamarBlue; ATCC 12228; 3 independent measurements
[5] = system: rabbit erythrocytes; experiment: Hemolysis assay; conditions: rabbit erythrocytes 4% (v/v), 256 μg/mL peptide, 1 h 37 °C, absorbance 570 nm, 0.1% Triton X-100 control
Method: The hemolytic activity of peptides was tested using rabbit erythrocytes (Figure S13). […]
the supernatant was collected and analyzed by RP-HPLC, with a UV detector monitored at 220 nm. Record the peak area of the intact peptide and calculate the percentage of remaining peptide based on the integrated area as, Peptide remaining (%) = peak area of remaining peptide/peak area of intact peptide×100%. Experiments were performed […]
with 200 μL of 4% (v/v) rabbit erythrocyte suspension, and the mixed solution was diluted with rabbit red blood cell suspension to obtain a series of peptide stock solution with different concentrations by fold dilution. […] Separate the supernatant and use a microplate reader (BioTek, USA) to measure hemoglobin release. Measure the absorbance at a wavelength of 570nm and calculate the percentage of hemolysis as follows: hemolysis (%) = (Abspeptide-Absblank)/(Abscontrol-Absblank), where Absblank and Abscontrol were absorbance of samples treated with PBS and 0.1% Triton X-100, […]
N-phenyl-1-naphthylamine (NPN, Macklin, China) was used to evaluate the integrity of OM of E. coli treated with the linear and stapled peptides. […] Subsequently, add a final concentration of 10 μM of NPN in each well of the plate and after incubation for 30 m inutes, record the fluorescence at 420 nm using a microplate reader with an exc itation wavelength of 350 […]

With `CC[C@H](C)[C@H](NC(=O)[C@H](CCCNC(=N)N)NC(=O)[C@H](CCCCN)NC(C)=O)C(=O)N[C@H](C(=O)N[C@@H](CCC(N)=O)C(=O)N[C@@H](CCCNC(=N)N)C(=O)N[C@H](C(=O)N[C@@]1(C)CCCC=CCCC[C@@](C)(C(N)=O)NC(=O)[C@H](CC(C)C)NC(=O)[C@H](Cc2ccccc2)NC(=O)[C@H](CC(=O)O)NC1=O)[C@@H](C)CC)C(C)C` [KR-12 (K8, R12)] (Ac-KRIVQRI[S5]DFL[S5]-NH2; staple 8-12) the “MIC K. pneumoniae” value [1] was greater than 256 µg/mL, the “MIC P. aeruginosa” value [2] was 256 µg/mL (≈ 162 µM) and the “MIC S. aureus” value [3] was 16 µg/mL (≈ 10.1 µM). For the same molecule, the “MIC S. epidermidis” value [4] was 16 µg/mL (≈ 10.1 µM) and the “H256 (hemolysis percentage)” value [5] was 77.2 ± 0.3%.
